How the values were obtained:
Type in all cases: cell-based, mouse
CD8+ T cells [1] = test: IFNγ-ELISPOT of predicted H-2b-binding ZIKV peptides; conditions: CD8+ T cells of mice infected with MR766 or FSS13025, day 7; positive: SFC per 10^6 CD8+ T cells ≥20 and stimulation index ≥2
Description: CD8^+ T cells were isolated by magnetic bead positive selection (Miltenyi Biotec, Germany). A total of 2×10^5 CD8^+ T cells were stimulated with 1×10^5 LPS-blast cells as antigen presenting cells (APCs) and 10 μg of individual ZIKV-derived peptide in 96-well flat-bottom plates (IMMOBILON™-P; Millipore, MA) coated with anti-mouse IFNγ monoclonal antibody (mAb) (clone AN18; Mabtech, Sweden) in triplicate. IFNγ-ELISPOT was performed as previously detailed (Elong Ngono et al., 2016). Positive peptides were those with a number of spot-forming cells (SFC) per 10^6 CD8^+ T cells ≥20 and a stimulation index ≥2 based on the negative control (DMSO). […]
The following results are with reference to FIG. 3A and FIG. 3B, where five-week-old LysMCre^+IFNAR^fl/fl were infected retro-orbitally with 10^4 FFU of ZIKV MR766 or FSS13025. […] A total of 244 peptides from ZIKV strains predicted to bind H-2Kb and H-2db with high affinity were screened. Two independent experiments for each ZIKV strain (n=5 mice for each experiment) were performed in triplicate per peptide. The data are expressed as the mean of spot forming cells (SFC) per 10^6 CD8^+ T cells, and error bars are represented as SEM. One-way ANOVA was used to compare the mean of each peptide with the control (DMSO) ([…]). […] The dotted line corresponds to the average amount of IFNγ produced by MOCK mice when stimulated with positive ZIKV-derived peptides (0.19% of IFNγ+CD8^+ T cells).

CD8+ T cells [2] = test: IFNγ ELISPOT, ZIKV-infected Ifnar-/- HLA-B*0702 transgenic mice; conditions: HLA-B*0702 mice; for SFC/10^6 CD8+ T cells, MR766: 7 days after 1×10^2 FFU ZIKV MR766; for SFC/10^6 CD8+ T cells, FSS13025: 7 days after 1×10^2 FFU ZIKV FSS13025; for immunodominance in IFNγ ELISPOT: immunodominant: >500 SFCs/10^6 CD8+ T cells, shared by both ZIKV strains
Description: (§1) Two ZIKV strains, MR766 (Uganda, 1947) and FSS13025 (Cambodia, 2010), were obtained from the World Reference Center for Emerging Viruses and Arboviruses (WRCEVA). The mouse-adapted DENV2 strain S221 is a triple-plaque purified clone derived from DENV2 D2S1038. Both ZIKV and DENV2 were amplified in C6/36 mosquito cells, and viral titers were measured using baby hamster kidney (BHK)-21 cell-based focus forming assay (FFA). For epitope screening, 5-week old mice (female or male) were infected retro-orbitally (R.O.) with either 1×102 FFU of ZIKV FSS13025 or ZIKV MR766, or 2×10^4 FFU of DENV2 S221 in 200 μl 10% FBS/PBS. Seven days after infection, CD8^+ T cells were isolated from splenocytes and used for ELISPOT assay, while the splenocytes were directly used for ICS assay. Additionally, 5-week old mice were inoculated I.P. with 2×10^3 FFU of DENV2 S221 for 4 weeks.
CD8^+ T cells were isolated from splenocytes using magnetic bead positive selection (Miltenyi Biotec, Germany) 7 days after virus infection. 2×10^5 CD8^+ T cells were stimulated with 1×10^5 LPS-blasts loaded with 10 μg of individual peptide in 96-well flat-bottom plates (IMMOBILON™-P; Millipore, Bedford, Mass.) that were coated with anti-IFNγ mAb (clone AN18; Mabtech, Stockholm, Sweden) in triplicate. Concanavalin A (ConA) was used as positive control. After 20 hours of incubation, biotinylated anti-mouse IFNγ mAb (R4-6A2; Mabtech), followed by ABC peroxidase (Vector Laboratories, Burlingame, Calif., USA) and then 3-amino-9-ethylcarbazole (Sigma-Aldrich, St. Louis, Mo., USA) were added into the wells. […] A peptide inducing a magnitude of >500 SFCs/10^6 CD8^+ T cells was considered as an immunodominant peptide.
Two independent experiments performed in triplicate were averaged and the error bars represent the SEM. The data are expressed as the mean number of spot forming cells (SFC) per 10^6 CD8^+ T cells. The criteria for positivity were net SFC per 10^6 cells of >20, and a stimulation index of >2.0 when compared with the negative control. Dotted lines represent the cutoff value. * Indicates a positive response. […] ConA denotes Concanavalin A.

CD3+CD8+ T cells = test: IFNγ ICS, ZIKV-infected Ifnar-/- HLA-B*0702 transgenic mice; conditions: for % IFNγ+ CD8+ T cells, FSS13025 / % IFNγ+ CD8+ T cells, MR766: HLA-B*0702 mice; for % IFNγ+ CD8+ T cells, FSS13025: 7 days after ZIKV FSS13025, ICS; for % IFNγ+ CD8+ T cells, MR766: 7 days after ZIKV MR766, ICS
Description: as §1
Spleens were harvested from virus-infected, mock-immunized, or peptide-immunized mice. 1×10^6 splenocytes were plated in each well of 96-well U-bottom plates and stimulated with individual peptide (10 μg crude peptide or 1 μg pure peptide per well) for 6 hours. Five hours before the end of incubation, Brefeldin A (GolgiPlug; BD Biosciences) and PE-conjugated anti CD107a mAb (clone 1D4B, eBioscience) were added to the cells. Splenocytes stimulated with PMA-ionomycin were used as the positive control, while cells without any stimulation were the negative control. […] Samples were run using an LSR™ II (BD Biosciences) and analyzed using FLOWJO™ software X 10.0.7 (Tree Star, Ashland, Oreg.).
Data represent the average of two independent experiments and are expressed as mean±SEM. *, P<0.05; **, P<0.01; Two-tailed Mann-Whitney test. P/I denotes PMA/ionomycin.

Row | Substance | Strains (ZIKV strain for which the peptide induced a positive T cell response, IFNγ-ELISPOT) (CD8+ T cells [1]) | SFC/10^6 CD8+ T cells, MR766 (CD8+ T cells [2]) [SFC/10^6 CD8+ T cells] | further results
1 | 4 (MSYECPML) [compound 4] | MR766 |  | 
2 | GPCKVPAQMAV [FSS-E337-347] |  | 271 | 
3 | 5 (PSVRNGNEI) [compound 5] | MR766 |  | 
4 | 20 (CAEAPNMKVI) [compound 20] | MR766/FSS |  | 
5 | VPRTDNIAL [MR-NS2A133-141] |  | 776 | SFC/10^6 CD8+ T cells, FSS13025 (CD8+ T cells [2]): 648 SFC/10^6 CD8+ T cells; immunodominance in IFNγ ELISPOT (CD8+ T cells [2]): immunodominant; % IFNγ+ CD8+ T cells, FSS13025 (CD3+CD8+ T cells): (0.54%); % IFNγ+ CD8+ T cells, MR766 (CD3+CD8+ T cells): (1.39%)
6 | 26 (SQLTPLTLI) [compound 26] | MR766/FSS |  | 
7 | IPYLGKREDL [FSS/MR-NS5587-596] |  | 438 | SFC/10^6 CD8+ T cells, FSS13025 (CD8+ T cells [2]): 178 SFC/10^6 CD8+ T cells; % IFNγ+ CD8+ T cells, MR766 (CD3+CD8+ T cells): (0.26%)
8 | RPYKAAAAQL [FSS/MR-NS4A36-45] |  | 120 | 
9 | SPFGGLKRLPA [FSS-C25-35] |  |  | SFC/10^6 CD8+ T cells, FSS13025 (CD8+ T cells [2]): 802 SFC/10^6 CD8+ T cells; % IFNγ+ CD8+ T cells, FSS13025 (CD3+CD8+ T cells): (0.79%); simultaneous IFNγ and TNFα production by peptide-stimulated CD8+ T cells (CD3+CD8+ T cells; ZIKV FSS13025-infected mice): stimulated production of both IFNγ and TNFα
10 | LPILAALTPL [MR-NS2A141-150] |  | 540 | % IFNγ+ CD8+ T cells, MR766 (CD3+CD8+ T cells): (0.28%)
11 | TPLARGTL [FSS/MR-NS2A148-155] |  | 1055 | SFC/10^6 CD8+ T cells, FSS13025 (CD8+ T cells [2]): 706 SFC/10^6 CD8+ T cells; immunodominance in IFNγ ELISPOT (CD8+ T cells [2]): immunodominant; % IFNγ+ CD8+ T cells, FSS13025 (CD3+CD8+ T cells): (0.28%); % IFNγ+ CD8+ T cells, MR766 (CD3+CD8+ T cells): (0.87%); simultaneous IFNγ and TNFα production by peptide-stimulated CD8+ T cells (CD3+CD8+ T cells; ZIKV MR766-infected mice): stimulated simultaneous production of IFNγ and TNFα
12 | 15 (AAFTFTKI) [compound 15] | FSS |  | 
13 | SPQDNQMAI [FSS/MR-NS4A125-133] |  | 159 | 
14 | 22 (MAVDMQTLTPV) [compound 22] | MR766/FSS |  | 
15 | 13 (VMIFLSTAV) [compound 13] | MR766 |  | 
16 | RPRTTVVAENI [FSS/MR-NS5605-614] |  | 641 | SFC/10^6 CD8+ T cells, FSS13025 (CD8+ T cells [2]): 383 SFC/10^6 CD8+ T cells; % IFNγ+ CD8+ T cells, FSS13025 (CD3+CD8+ T cells): (0.22%); % IFNγ+ CD8+ T cells, MR766 (CD3+CD8+ T cells): (0.55%)
17 | 17 (TLGMNKCYI) [compound 17] | FSS |  | 
18 | 16 (SSLINGVVRL) [compound 16] | FSS |  | 
19 | GPQRLPVPV [FSS/MR-NS199-107] |  | 103 | 
20 | 1 (AAFTFTKV) [compound 1] | MR766 |  | 

— patent US11806393B2, “Flavivirus peptide sequences, epitopes, and methods and uses thereof” (priority 2017, dated 2023)
